The record followed here is patent US4785001A, “Ergoline esters” (Farmitalia Carlo Erba S.p.A., priority 1986, dated 1988).

Data set [1] can be described thus: orientative acute toxicity (LD50), p.o. mice. The following applies: mouse, in vivo, po.
Data set [2] in a line: electroencephalographic effects (EEG) in the rat. The settings on record: 20 mg/Kg p.o. The class given is in vivo. As to the method: Moreover, the compound prepared in Example 1 was tested at the dose of 20 mg/Kg p.o. in the rat and the electroencephalographic effects (EEG) were observed. […] See Buonamici, M., Young, G. A. and Khazon (1982), Neuropharmacology, 21 : 825-829.

On to `CO[C@]12C[C@@H](COC(=O)C3=CN(C)C=CC3)CN(C)[C@@H]1Cc1cn(C)c3cccc2c13` [Example 1, 10-Methoxy-,1,6-dimethyl-8β-(1-methyl-,1,4-dihydro-3-pyridyl-carbonyloxymethyl)-ergoline], for which the LD50 in data set [1] is more than 800 mg/kg. In data set [2], the “electroencephalographic effects (EEG)” value was “increased and long-lasting modifications”.
